Measurements: ChEMBL document CHEMBL1124423, “Synthesis of highly mu and delta opioid receptor selective peptides containing a photoaffinity group” (J Med Chem, 1989)

Tests used:
[1] = biological target: Opioid receptors; mu & delta (Homo sapiens) (UniProt P41143+P35372); assay: Selectivity ratio for binding to mu vs delta opioid receptor; type: protein assay
Cavia porcellus [2] = species on record: Cavia porcellus; assay: Inhibition of response by delta receptor selective analogue at 3000 nM was assessed in Guinea pig ileum assay; type: functional
Mus musculus [3] = species on record: Mus musculus; assay: Concentration that reduced the response by 50% by delta selective analogue was assessed in mouse vas deferens assay; type: functional
Cavia porcellus [4] = species on record: Cavia porcellus; assay: Inhibition of response by delta receptor selective analogue at 10000 nM was assessed in Guinea pig ileum assay; type: functional
Mus musculus [5] = species on record: Mus musculus; assay: Concentration that reduced the response by 50% by delta selective analogue was assessed in mouse vas deferens assay; NA is no activity at 10e-5 M; type: functional
[6] = biological target: Delta-type opioid receptor (Rattus norvegicus, UniProt P33533); assay: Binding potency of compound in competition with [3H]DPDPE for Opioid receptor delta 1 tested in rat brain membrane; type: cell membranes
Sequence of Delta-type opioid receptor (P33533 whole entry): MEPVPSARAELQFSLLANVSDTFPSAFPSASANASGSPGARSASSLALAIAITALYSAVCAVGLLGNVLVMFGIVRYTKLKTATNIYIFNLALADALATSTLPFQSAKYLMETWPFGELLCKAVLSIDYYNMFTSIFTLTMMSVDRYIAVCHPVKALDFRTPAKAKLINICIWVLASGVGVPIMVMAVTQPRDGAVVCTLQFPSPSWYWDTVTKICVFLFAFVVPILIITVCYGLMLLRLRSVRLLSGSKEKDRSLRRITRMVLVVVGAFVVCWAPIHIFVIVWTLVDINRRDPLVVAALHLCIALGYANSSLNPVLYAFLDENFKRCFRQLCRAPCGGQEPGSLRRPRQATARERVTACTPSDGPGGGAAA

Mu-type opioid receptor = Mu-type opioid receptor (Rattus norvegicus, UniProt P33535); assay: Binding potency of compound in competition with [3H]CTOP for Opioid receptor mu 1 tested in rat brain membrane; type: cell membranes
Sequence of Mu-type opioid receptor (P33535 whole entry): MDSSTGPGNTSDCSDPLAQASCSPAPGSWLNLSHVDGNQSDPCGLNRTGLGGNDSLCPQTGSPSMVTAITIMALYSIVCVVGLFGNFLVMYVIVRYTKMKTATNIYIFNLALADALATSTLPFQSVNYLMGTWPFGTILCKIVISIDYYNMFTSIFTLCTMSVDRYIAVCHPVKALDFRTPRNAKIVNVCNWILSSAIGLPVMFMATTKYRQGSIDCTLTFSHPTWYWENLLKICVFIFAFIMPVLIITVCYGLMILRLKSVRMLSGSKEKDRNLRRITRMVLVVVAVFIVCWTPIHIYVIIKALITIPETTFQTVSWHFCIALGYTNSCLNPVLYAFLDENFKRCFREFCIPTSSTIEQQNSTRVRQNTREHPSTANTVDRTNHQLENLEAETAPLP

Cavia porcellus [7] = species on record: Cavia porcellus; assay: Concentration that reduced the response by 50% by delta receptor selective analogue was assessed in Guinea pig ileum assay; type: functional
Cavia porcellus [8] = species on record: Cavia porcellus; assay: Inhibition of response by delta receptor selective analogue at 300 nM was assessed in Guinea pig ileum assay; type: functional
Mus musculus [9] = species on record: Mus musculus; assay: Concentration that reduced the response by 50% by delta receptor selective analogue was assessed in mouse vas deferens assay; NA is no activity at 10e-5 M; type: functional
Cavia porcellus [10] = species on record: Cavia porcellus; assay: Affinity of mu receptor selective analogue in Guinea pig ileum assay expressed as pA2; type: functional; details: read-out: pA2 (converted)

Sequence of Opioid receptors; mu & delta (Homo sapiens) (P35372 whole entry, looked up): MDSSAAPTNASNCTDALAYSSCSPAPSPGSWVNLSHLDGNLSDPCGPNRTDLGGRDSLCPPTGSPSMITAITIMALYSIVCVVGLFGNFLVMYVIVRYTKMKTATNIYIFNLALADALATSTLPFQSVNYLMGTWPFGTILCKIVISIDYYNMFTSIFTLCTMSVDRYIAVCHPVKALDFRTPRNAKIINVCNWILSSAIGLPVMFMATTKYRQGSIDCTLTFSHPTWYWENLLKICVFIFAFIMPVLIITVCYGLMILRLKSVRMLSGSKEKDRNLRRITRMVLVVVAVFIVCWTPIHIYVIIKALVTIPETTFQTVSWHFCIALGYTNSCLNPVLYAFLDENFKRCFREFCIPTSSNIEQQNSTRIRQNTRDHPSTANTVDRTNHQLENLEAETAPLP
Sequence of Opioid receptors; mu & delta (Homo sapiens) (P41143 whole entry, looked up): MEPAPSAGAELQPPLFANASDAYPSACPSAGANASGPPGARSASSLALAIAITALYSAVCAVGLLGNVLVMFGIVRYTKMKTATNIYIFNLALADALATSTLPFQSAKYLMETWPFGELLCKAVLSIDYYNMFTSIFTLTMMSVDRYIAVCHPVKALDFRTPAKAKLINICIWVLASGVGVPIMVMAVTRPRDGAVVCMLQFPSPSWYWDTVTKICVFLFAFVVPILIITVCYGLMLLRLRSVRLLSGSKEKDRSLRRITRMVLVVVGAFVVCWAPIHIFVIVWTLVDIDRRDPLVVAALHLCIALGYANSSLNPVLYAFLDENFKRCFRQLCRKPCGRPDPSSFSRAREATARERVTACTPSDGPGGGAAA

## C[C@@H](O)[C@H](NC(=O)[C@@H]1NC(=O)[C@H]([C@@H](C)O)NC(=O)[C@@H](CCCCN)NC(=O)[C@@H](Cc2c[nH]c3ccccc23)NC(=O)[C@@H](Cc2ccc(N=[N+]=[N-])cc2)NC(=O)[C@H](NC(=O)[C@@H](N)Cc2ccccc2)CSSC1(C)C)C(N)=O
[1]
  Ratio: 412

## C[C@@H](O)[C@H](NC(=O)[C@H]1NC(=O)[C@H]([C@@H](C)O)NC(=O)[C@H](CCCCN)NC(=O)[C@@H](Cc2c[nH]c3ccccc23)NC(=O)[C@H](Cc2ccc(N)cc2)NC(=O)[C@@H](NC(=O)[C@H](N)Cc2ccccc2)CSSC1(C)C)C(N)=O [listing 1 of 2 here]
Cavia porcellus [2]
  inhibition at 3 µM: 5%

## CC1(C)SSC(C)(C)[C@@H](NC(=O)[C@@H](N)Cc2ccc(O)cc2)C(=O)NCC(=O)N[C@@H](Cc2ccc(N=[N+]=[N-])cc2)C(=O)N[C@H]1C(=O)O [listing 1 of 2 here]
Mus musculus [3]
  IC50: 9.5 nM

## CC1(C)SSC(C)(C)[C@@H](NC(=O)[C@@H](N)Cc2ccc(O)cc2)C(=O)NCC(=O)N[C@@H](Cc2ccc(N=[N+]=[N-])cc2)C(=O)N[C@H]1C(=O)O [listing 2 of 2 here]
Cavia porcellus [4]
  inhibition at 10 µM: 6%

## C[C@@H](O)[C@H](NC(=O)[C@H]1NC(=O)[C@H]([C@@H](C)O)NC(=O)[C@H](CCCCN)NC(=O)[C@@H](Cc2c[nH]c3ccccc23)NC(=O)[C@H](Cc2ccc(N=[N+]=[N-])cc2)NC(=O)[C@@H](NC(=O)[C@H](N)Cc2ccccc2)CSSC1(C)C)C(N)=O [listing 1 of 2 here]
Mus musculus [5]
  IC50: Not Active
[6]
  IC50: 20000 nM
Mu-type opioid receptor
  IC50: 49 nM

## C[C@@H](O)[C@H](NC(=O)[C@H]1NC(=O)[C@H]([C@@H](C)O)NC(=O)[C@H](CCCCN)NC(=O)[C@@H](Cc2c[nH]c3ccccc23)NC(=O)[C@H](Cc2ccc(N)cc2)NC(=O)[C@@H](NC(=O)[C@H](N)Cc2ccccc2)CSSC1(C)C)C(N)=O [listing 2 of 2 here]
Mus musculus [5]
  IC50: Not Active
[6]
  IC50: > 10000 nM
Mu-type opioid receptor
  IC50: 500 nM

## CC1(C)SSC(C)(C)[C@@H](NC(=O)[C@@H](N)Cc2ccc(O)cc2)C(=O)NCC(=O)N[C@@H](Cc2ccc(N)cc2)C(=O)N[C@H]1C(=O)O
Cavia porcellus [7]
  IC50: > 10000 nM
Mus musculus [3]
  IC50: 138 nM

## C[C@@H](O)[C@H](NC(=O)[C@H]1NC(=O)[C@H]([C@@H](C)O)NC(=O)[C@H](CCCCN)NC(=O)[C@@H](Cc2c[nH]c3ccccc23)NC(=O)[C@H](Cc2ccc(N=[N+]=[N-])cc2)NC(=O)[C@@H](NC(=O)[C@H](N)Cc2ccccc2)CSSC1(C)C)C(N)=O [listing 2 of 2 here]
Cavia porcellus [8]
  inhibition at 0.3 µM: 8%

## CC1(C)SSC(C)(C)[C@@H](NC(=O)[C@@H](N)Cc2ccc(O)cc2)C(=O)NCC(=O)N[C@@H](Cc2ccccc2)C(=O)N[C@H]1C(=O)O
Mus musculus [3]
  IC50: 4.3 nM

## C[C@@H](O)[C@H](NC(=O)[C@@H]1NC(=O)[C@H]([C@@H](C)O)NC(=O)[C@@H](CCCCN)NC(=O)[C@@H](Cc2c[nH]c3ccccc23)NC(=O)[C@@H](Cc2ccc(O)cc2)NC(=O)[C@H](NC(=O)[C@@H](N)Cc2ccccc2)CSSC1(C)C)C(=O)O
[1]
  Ratio: 3230

## C[C@@H](O)[C@H](NC(=O)[C@H]1NC(=O)[C@H]([C@@H](C)O)NC(=O)[C@H](CCCCN)NC(=O)[C@@H](Cc2c[nH]c3ccccc23)NC(=O)[C@H](Cc2ccc(O)cc2)NC(=O)[C@@H](NC(=O)[C@H](N)Cc2ccccc2)CSSC1(C)C)C(=O)O
[6]
  IC50: 8400 nM
Mu-type opioid receptor
  IC50: 3 nM
Mus musculus [9]
  IC50: Not Active
Cavia porcellus [10]
  Kb: 79.4 nM

## C[C@@H](O)[C@H](NC(=O)[C@@H]1NC(=O)[C@H]([C@@H](C)O)NC(=O)[C@@H](CCCCN)NC(=O)[C@@H](Cc2c[nH]c3ccccc23)NC(=O)[C@@H](Cc2ccc(N)cc2)NC(=O)[C@H](NC(=O)[C@@H](N)Cc2ccccc2)CSSC1(C)C)C(N)=O
[1]
  Ratio: > 20
